Laboratory results: publication PMC10246002 (bioRxiv, 2023)

Tested on: human tracheobronchial epithelial cells (hTECs)
Assay type: cell-based
Settings: hTEC ALI culture with IL-13, resazurin assay

With `Cc1ccc(-n2nc(C(C)(C)C)cc2NC(=O)Nc2ccc(OCCN3CCOCC3)c3ccccc23)cc1` [NuP-43, BIRB-796] the “number of viable cells” value was “no significant effects”.
